Laboratory results published in ChEMBL document CHEMBL1129438, “Neighboring group catalysis in the design of nucleotide prodrugs” (J Med Chem, 1996).

How the values were obtained:
[1] = Half life (t 1/2) during hydrolysis caused by human serum; assay type: ADME, organism-based
[2] = Half life (t 1/2) during hydrolysis catalyzed by brain extract; assay type: ADME, tissue-based
[3] = Half life (t 1/2) during base-catalyzed hydrolysis; assay type: ADME
[4] = Half life (t 1/2) during pig liver esterase-catalyzed hydrolysis; assay type: ADME, organism-based, Sus scrofa

| SMILES | half-life [1] [min] | half-life [2] [min] | half-life [3] [min] | half-life [4] [min] |
| --- | --- | --- | --- | --- |
| COC(=O)c1ccccc1OP(=O)(OC[C@H]1O[C@@H](n2ccc(=O)[nH]c2=O)C[C@@H]1N=[N+]=[N-])OC[C@H]1O[C@@H](n2ccc(=O)[nH]c2=O)C[C@@H]1N=[N+]=[N-] | 240 | 240 | 66 | 1200 |
| O=C(OC1O[C@H](CO)[C@@H](O)[C@H](O)[C@H]1O)c1ccccc1OP(=O)(OC[C@@H]1CC[C@H](n2ccc(=O)[nH]c2=O)O1)OC[C@@H]1CC[C@H](n2ccc(=O)[nH]c2=O)O1 (stereo partly specified) | 2880 | > 4320 | 1020 | > 2880 |
| [N-]=[N+]=N[C@H]1C[C@H](n2ccc(=O)[nH]c2=O)O[C@@H]1COP(=O)(OC[C@H]1O[C@@H](n2ccc(=O)[nH]c2=O)C[C@@H]1N=[N+]=[N-])Oc1ccccc1C(=O)Oc1ccccc1 | 240 | 300 | 66 | 60 |
| [N-]=[N+]=N[C@H]1C[C@H](n2ccc(=O)[nH]c2=O)O[C@@H]1COP(=O)(OC[C@H]1O[C@@H](n2ccc(=O)[nH]c2=O)C[C@@H]1N=[N+]=[N-])Oc1ccccc1 | 1020 | 1020 | 1020 | 1020 |
